Measurements published in ChEMBL document CHEMBL1201862, “PubChem BioAssay data set” (2004).
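A five-concentration, 48-hour dose response in 96-well plates underlies each endpoint, interpolated linearly between surrounding concentrations. Here, GI50 denotes the concentration required for 50% inhibition of growth.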 The source made the active and inactive calls. Cut-off read from the data, not from the text of the source: active = GI50 up to about 1.1 µM and inactive = higher.

How the values were obtained:
Test in all cases: growth of human tumour cells (NCI), 48 h
BT-549 = test system: BT-549
MOLT-4 = test system: MOLT-4
OVCAR-8 = test system: OVCAR-8
SK-MEL-5 = test system: SK-MEL-5
SNB-75 = test system: SNB-75
SK-OV-3 = test system: SK-OV-3
NCI/ADR-RES = test system: NCI/ADR-RES
K562 = test system: K562
A549 = test system: A549
MDA-N = test system: MDA-N
UACC-257 = test system: UACC-257
OVCAR-4 = test system: OVCAR-4
M14 = test system: M14
UO-31 = test system: UO-31
SF-268 = test system: SF-268
HCT-116 = test system: HCT-116
SK-MEL-2 = test system: SK-MEL-2
HT-29 = test system: HT-29
NCI-H460 = test system: NCI-H460
HOP-18 = test system: HOP-18

| SMILES | GI50 (BT-549) | GI50 (MOLT-4) | GI50 (OVCAR-8) | GI50 (SK-MEL-5) | GI50 (SNB-75) | GI50 (SK-OV-3) | GI50 (NCI/ADR-RES) | GI50 (K562) | GI50 (A549) | GI50 (MDA-N) | GI50 (UACC-257) | GI50 (OVCAR-4) | GI50 (M14) | GI50 (UO-31) | GI50 (SF-268) | GI50 (HCT-116) | GI50 (SK-MEL-2) | GI50 (HT-29) | GI50 (NCI-H460) | GI50 (HOP-18) |
| --- | --- | --- | --- | --- | --- | --- | --- | --- | --- | --- | --- | --- | --- | --- | --- | --- | --- | --- | --- | --- |
| O=C(N/N=C/c1ccccc1)c1cccc2nc3ccccc3nc12 | > 58.2 µM (inactive) | > 100 µM (inactive) | > 85.7 µM (inactive) | 3.19 µM (inactive) | > 100 µM (inactive) | > 88.3 µM (inactive) | > 100 µM (inactive) | > 100 µM (inactive) | 3.81 µM (inactive) | 54.2 µM (inactive) | > 100 µM (inactive) | > 100 µM (inactive) | 35 µM (inactive) | > 100 µM (inactive) | > 80.2 µM (inactive) | > 100 µM (inactive) | > 100 µM (inactive) | 46.3 µM (inactive) | 3.5 µM (inactive) |  |
| O=S(=O)(N1CCCCN(S(=O)(=O)C(F)(F)F)CCCN(S(=O)(=O)C(F)(F)F)CCCCN(S(=O)(=O)C(F)(F)F)CCCN(S(=O)(=O)C(F)(F)F)CCCCN(S(=O)(=O)C(F)(F)F)CCCN(S(=O)(=O)C(F)(F)F)CCCCN(S(=O)(=O)C(F)(F)F)CCC1)C(F)(F)F | > 31.6 µM (inactive) | > 31.6 µM (inactive) | > 31.6 µM (inactive) | > 31.6 µM (inactive) | > 31.6 µM (inactive) | > 31.6 µM (inactive) | > 31.6 µM (inactive) | > 31.6 µM (inactive) | > 31.6 µM (inactive) | > 31.6 µM (inactive) | > 31.6 µM (inactive) | > 100 µM (inactive) | > 31.6 µM (inactive) | > 31.6 µM (inactive) | > 31.6 µM (inactive) | > 31.6 µM (inactive) | > 100 µM (inactive) | > 31.6 µM (inactive) | > 31.6 µM (inactive) |  |
| CCC(=O)C(C)C1=Nc2nnc(CCCCCCCc3nnc4n3C(=O)C(C(C)C(=O)CC)=N4)n2C1=O (centres undefined) |  | > 100 µM (inactive) | > 100 µM (inactive) | > 100 µM (inactive) | > 100 µM (inactive) | > 100 µM (inactive) |  | > 100 µM (inactive) | > 100 µM (inactive) |  | > 100 µM (inactive) |  | > 100 µM (inactive) | > 100 µM (inactive) | > 100 µM (inactive) | > 100 µM (inactive) |  | > 100 µM (inactive) | > 100 µM (inactive) | > 100 µM (inactive) |
| CC(/C=N\NC(=S)N1CCCCC1)=N/NC(=S)N1CCCCC1 | 3.03 µM (inactive) | 0.514 µM (active) | 0.551 µM (active) | 1.23 µM (inactive) | 1.69 µM (inactive) | 1.04 µM (active) | 0.759 µM (active) | 1.12 µM (active) | 0.692 µM (active) | 2.89 µM (inactive) | 2.94 µM (inactive) | 2.3 µM (inactive) | 1.28 µM (inactive) | 0.649 µM (active) | 1.05 µM (active) | 0.627 µM (active) | 1.28 µM (inactive) | 0.931 µM (active) | 0.358 µM (active) |  |
| COC1(OC)CC2C(=O)N(Cc3ccccc3)C1C(S(=O)(=O)c1ccccc1)C2S(=O)(=O)c1ccccc1 (centres undefined) |  | 11.5 µM (inactive) | 8.07 µM (inactive) | 18.4 µM (inactive) | 14.2 µM (inactive) | 30 µM (inactive) |  | 7.48 µM (inactive) | 29.6 µM (inactive) |  | 7.38 µM (inactive) | 15.1 µM (inactive) | 14.8 µM (inactive) | 17.4 µM (inactive) | 14.1 µM (inactive) | 16.4 µM (inactive) |  | 11.6 µM (inactive) | 27.7 µM (inactive) | 17.2 µM (inactive) |
| CCOC(=O)c1cn(CC)c2ccc3c(c2c1=O)S(=O)(=O)C=C3 | > 100 µM (inactive) | > 100 µM (inactive) | > 100 µM (inactive) | > 100 µM (inactive) | > 100 µM (inactive) | > 100 µM (inactive) | > 100 µM (inactive) | > 100 µM (inactive) | > 100 µM (inactive) | > 100 µM (inactive) | > 100 µM (inactive) | > 100 µM (inactive) | > 100 µM (inactive) | 60.1 µM (inactive) | > 100 µM (inactive) | > 100 µM (inactive) | 52.5 µM (inactive) | > 100 µM (inactive) | > 100 µM (inactive) |  |
| NC1=C(O)c2cccc3cccc(c23)C1=O |  | > 100 µM (inactive) | > 100 µM (inactive) | > 100 µM (inactive) | > 100 µM (inactive) | > 100 µM (inactive) |  | > 100 µM (inactive) | > 100 µM (inactive) |  | > 100 µM (inactive) | > 100 µM (inactive) | > 100 µM (inactive) | 51.6 µM (inactive) | > 100 µM (inactive) | > 100 µM (inactive) | > 100 µM (inactive) | > 100 µM (inactive) |  | > 100 µM (inactive) |
| Cc1cccc(N2C(=O)C(=O)C(c3nc4ccccc4s3)C(=O)C2=O)c1C |  | > 100 µM (inactive) | > 100 µM (inactive) | > 100 µM (inactive) | > 100 µM (inactive) | > 100 µM (inactive) |  | > 100 µM (inactive) | > 100 µM (inactive) |  | > 100 µM (inactive) | > 100 µM (inactive) | > 100 µM (inactive) | > 100 µM (inactive) | > 100 µM (inactive) | > 100 µM (inactive) | > 100 µM (inactive) | > 100 µM (inactive) |  | > 100 µM (inactive) |
